Source: ChEMBL document CHEMBL4507269, “Data for DCP probe BAY-386” (2021)
The source made the active and inactive calls. No cut-off for these calls is given here.

Columns and labels:
Rattus norvegicus [1] = species: Rattus norvegicus; test: Testosterone Eurofins-Panlabs radioligand binding assay; design: ligand concentration 1.5 nM; settings: Compound concentration 10.0 uM
[2] = target: T1, D(4) dopamine receptor (Homo sapiens) (UniProt P21917); test: Inhibition of Dopamine D4.2 at 10 µM in the Eurofins-Panlabs radioligand binding assay (Eurofins_assay_219900); design: ligand concentration 0.5 nM; settings: Compound concentration 10.0 uM
T1 sequence (whole entry): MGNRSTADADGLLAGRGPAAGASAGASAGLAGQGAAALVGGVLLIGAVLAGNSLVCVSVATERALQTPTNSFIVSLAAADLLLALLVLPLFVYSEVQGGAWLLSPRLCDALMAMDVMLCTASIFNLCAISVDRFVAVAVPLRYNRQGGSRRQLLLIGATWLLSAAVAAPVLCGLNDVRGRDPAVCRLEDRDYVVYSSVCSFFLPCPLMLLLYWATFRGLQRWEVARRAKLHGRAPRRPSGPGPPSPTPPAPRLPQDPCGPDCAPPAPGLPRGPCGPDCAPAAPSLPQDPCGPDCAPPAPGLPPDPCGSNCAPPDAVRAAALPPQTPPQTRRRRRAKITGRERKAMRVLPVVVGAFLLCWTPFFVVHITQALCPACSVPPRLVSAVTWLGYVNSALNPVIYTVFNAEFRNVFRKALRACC

[3] = target: Epidermal growth factor receptor (Homo sapiens) (UniProt P00533); test: Inhibition of Epidermal Growth Factor (EGF) at 10 µM in the Eurofins-Panlabs radioligand binding assay (Eurofins_assay_225510); settings: Compound concentration 10.0 uM
[4] = target: T2, GABA-A receptor; anion channel (Rattus norvegicus) (UniProt O09028+P15431+P18506+P18508+P19969+P20236+P23574+P23576+P28471+P28473+P30191+P62813+P63079+P63138+Q91ZM7+Q9ES14); test: Inhibition of GABAA, Muscimol, Central at 10 µM in the Eurofins-Panlabs radioligand binding assay (Eurofins_assay_226500); assay type: protein-complex assay; settings: Compound concentration 10.0 uM
[5] = target: Gamma-aminobutyric acid type B receptor subunit 1 (Homo sapiens) (UniProt Q9UBS5); test: Inhibition of GABAB1A at compound concentration of 10.0 uM in the Eurofins-Panlabs radioligand binding assay (Eurofins_assay_228610); design: ligand concentration 4 nM; settings: Compound concentration 10.0 uM
[6] = target: Glucocorticoid receptor (Homo sapiens) (UniProt P04150); test: Glucocorticoid Eurofins-Panlabs radioligand binding assay; settings: Compound concentration 10.0 uM
[7] = target: Glutamate receptor ionotropic, kainate (Rattus norvegicus) (UniProt P22756+Q01812+P42260+P42264+Q63273); test: Inhibition of Glutamate, Kainate at 10 µM in the Eurofins-Panlabs radioligand binding assay (Eurofins_assay_232700); settings: Compound concentration 10.0 uM
Mus musculus = species: Mus musculus; test: Inhibition of Phorbol Ester at 10 µM in the Eurofins-Panlabs radioligand binding assay (Eurofins_assay_264500); design: ligand concentration 3 nM; settings: Compound concentration 10.0 uM
[8] = target: Platelet-activating factor receptor (Homo sapiens) (UniProt P25105); test: Inhibition of Platelet Activating Factor (PAF) at 10 µM in the Eurofins-Panlabs radioligand binding assay (Eurofins_assay_265010); settings: Compound concentration 10.0 uM
Rattus norvegicus [9] = species: Rattus norvegicus; test: Inhibition of Thyroid Hormone at 10 µM in the Eurofins-Panlabs radioligand binding assay (Eurofins_assay_285900); assay type: protein assay; settings: Compound concentration 10.0 uM
[10] = target: B2 bradykinin receptor (Homo sapiens) (UniProt P30411); test: Bradykinin B2 Eurofins-Panlabs radioligand binding assay; settings: Compound concentration 10.0 uM
[11] = target: T3, Alpha-2A adrenergic receptor (Homo sapiens) (UniProt P08913); test: Adrenergic alpha2A Eurofins-Panlabs radioligand binding assay; design: ligand concentration 1 nM, non-specific ligand with concentration 10 µM WB-4101, incubation time 60 min, incubation temperature 25 °C; settings: Compound concentration 10.0 uM
T3 sequence (whole entry): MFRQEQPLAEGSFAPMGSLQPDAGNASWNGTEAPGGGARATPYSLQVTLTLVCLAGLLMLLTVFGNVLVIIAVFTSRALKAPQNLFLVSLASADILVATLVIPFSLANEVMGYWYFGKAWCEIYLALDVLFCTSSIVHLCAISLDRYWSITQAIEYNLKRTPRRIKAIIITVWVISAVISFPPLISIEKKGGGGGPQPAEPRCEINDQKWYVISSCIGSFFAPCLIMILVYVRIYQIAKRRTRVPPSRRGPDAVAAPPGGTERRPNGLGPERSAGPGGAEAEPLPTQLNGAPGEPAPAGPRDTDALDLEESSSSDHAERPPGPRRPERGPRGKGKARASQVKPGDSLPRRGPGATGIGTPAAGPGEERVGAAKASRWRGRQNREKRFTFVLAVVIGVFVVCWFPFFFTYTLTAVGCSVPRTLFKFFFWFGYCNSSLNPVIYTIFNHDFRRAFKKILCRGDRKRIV

[12] = target: T4, Proteinase-activated receptor 1 (Homo sapiens, UniProt P25116); test: Binding assay (platelet membranes)
T4 sequence (P25116 whole entry): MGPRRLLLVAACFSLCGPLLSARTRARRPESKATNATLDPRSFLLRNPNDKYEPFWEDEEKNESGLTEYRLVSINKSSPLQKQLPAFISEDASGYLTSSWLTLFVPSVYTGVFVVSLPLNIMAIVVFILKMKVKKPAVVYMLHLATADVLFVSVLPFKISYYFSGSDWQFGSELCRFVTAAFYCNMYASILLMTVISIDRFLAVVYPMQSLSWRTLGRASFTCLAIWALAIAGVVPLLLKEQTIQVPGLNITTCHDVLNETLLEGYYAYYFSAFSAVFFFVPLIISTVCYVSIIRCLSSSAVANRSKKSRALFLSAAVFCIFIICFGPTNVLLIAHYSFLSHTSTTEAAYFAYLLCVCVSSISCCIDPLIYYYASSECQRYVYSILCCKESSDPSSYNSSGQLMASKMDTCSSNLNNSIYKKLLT

Platelet [13] = test: Inhibition of platelet aggregation (human plasma, ADP, Collagen); assay type: cell-based
Platelet [14] = test: Inhibition of platelet aggregation (human plasma, thrombin); assay type: cell-based
[15] = target: Histamine H3 receptor (Homo sapiens) (UniProt Q9Y5N1); test: Histamine H3 Eurofins-Panlabs radioligand binding assay; settings: Compound concentration 10.0 uM
[16] = target: Substance-P receptor (Homo sapiens) (UniProt P25103); test: Tachykinin NK1 Eurofins-Panlabs radioligand binding assay; settings: Compound concentration 10.0 uM
[17] = target: Adenosine receptor A1 (Homo sapiens) (UniProt P30542); settings: Compound concentration 10.0 uM
[18] = target: T2, GABA-A receptor; anion channel (Rattus norvegicus); settings: Compound concentration 10.0 uM
[19] = target: T5, Glutamate NMDA receptor (Rattus norvegicus) (UniProt P35439+Q00959+Q00960+Q00961+Q62645+Q8VHN2+Q9R1M7); settings: Compound concentration 10.0 uM
[20] = target: T5, Glutamate NMDA receptor (Rattus norvegicus); settings: Compound concentration 10.0 uM; remark: listed apart in the source
[21] = target: Sodium-dependent noradrenaline transporter (Homo sapiens) (UniProt P23975); settings: Compound concentration 10.0 uM
[22] = target: 5-hydroxytryptamine receptor 3A (Homo sapiens) (UniProt P46098); settings: Compound concentration 10.0 uM
Chain of 5-hydroxytryptamine receptor 3A (Homo sapiens) (P46098 whole entry): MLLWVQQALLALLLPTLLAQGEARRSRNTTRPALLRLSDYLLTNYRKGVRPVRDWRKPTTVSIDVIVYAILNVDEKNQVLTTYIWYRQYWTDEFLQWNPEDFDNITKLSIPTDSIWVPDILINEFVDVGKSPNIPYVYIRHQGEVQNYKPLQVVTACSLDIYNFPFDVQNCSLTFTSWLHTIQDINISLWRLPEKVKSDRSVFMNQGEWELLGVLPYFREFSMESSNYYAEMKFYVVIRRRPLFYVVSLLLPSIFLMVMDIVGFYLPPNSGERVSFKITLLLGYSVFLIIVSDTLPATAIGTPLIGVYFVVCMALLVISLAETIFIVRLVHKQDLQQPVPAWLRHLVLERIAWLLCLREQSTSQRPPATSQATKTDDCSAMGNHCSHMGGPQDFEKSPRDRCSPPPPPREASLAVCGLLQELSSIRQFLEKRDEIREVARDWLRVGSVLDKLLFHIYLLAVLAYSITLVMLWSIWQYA

Chain of Substance-P receptor (Homo sapiens) (P25103 whole entry): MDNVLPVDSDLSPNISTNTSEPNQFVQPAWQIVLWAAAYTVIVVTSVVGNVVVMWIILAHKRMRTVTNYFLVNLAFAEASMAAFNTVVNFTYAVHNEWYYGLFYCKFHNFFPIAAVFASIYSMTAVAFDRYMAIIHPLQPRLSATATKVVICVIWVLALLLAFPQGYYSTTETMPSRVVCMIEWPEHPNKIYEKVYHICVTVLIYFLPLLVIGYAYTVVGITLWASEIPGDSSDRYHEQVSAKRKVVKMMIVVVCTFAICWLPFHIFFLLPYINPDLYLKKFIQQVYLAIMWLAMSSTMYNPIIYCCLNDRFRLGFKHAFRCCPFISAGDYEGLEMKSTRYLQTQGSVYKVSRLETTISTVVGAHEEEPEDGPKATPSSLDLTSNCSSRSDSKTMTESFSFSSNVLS
Chain of Glucocorticoid receptor (Homo sapiens) (P04150 whole entry): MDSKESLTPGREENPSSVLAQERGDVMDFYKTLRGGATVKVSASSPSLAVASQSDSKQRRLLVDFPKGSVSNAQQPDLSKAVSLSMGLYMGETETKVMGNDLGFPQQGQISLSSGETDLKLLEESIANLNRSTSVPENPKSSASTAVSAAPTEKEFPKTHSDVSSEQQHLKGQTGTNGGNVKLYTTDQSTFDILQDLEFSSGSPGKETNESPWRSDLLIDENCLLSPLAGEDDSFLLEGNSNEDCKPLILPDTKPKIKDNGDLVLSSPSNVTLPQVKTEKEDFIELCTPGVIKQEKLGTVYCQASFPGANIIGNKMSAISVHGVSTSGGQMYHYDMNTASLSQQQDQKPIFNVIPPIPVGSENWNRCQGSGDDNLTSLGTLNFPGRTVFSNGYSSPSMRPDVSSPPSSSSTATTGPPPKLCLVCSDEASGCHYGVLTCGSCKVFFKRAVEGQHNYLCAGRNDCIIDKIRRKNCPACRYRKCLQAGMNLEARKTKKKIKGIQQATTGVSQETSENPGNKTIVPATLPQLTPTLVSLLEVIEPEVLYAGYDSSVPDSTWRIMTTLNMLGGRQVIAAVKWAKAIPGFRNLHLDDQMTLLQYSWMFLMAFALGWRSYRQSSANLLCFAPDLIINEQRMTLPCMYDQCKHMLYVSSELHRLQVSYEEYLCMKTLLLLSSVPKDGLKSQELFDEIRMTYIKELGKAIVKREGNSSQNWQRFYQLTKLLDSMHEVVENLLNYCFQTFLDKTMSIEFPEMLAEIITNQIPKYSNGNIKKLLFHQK
Chain of Epidermal growth factor receptor (Homo sapiens) (P00533 whole entry): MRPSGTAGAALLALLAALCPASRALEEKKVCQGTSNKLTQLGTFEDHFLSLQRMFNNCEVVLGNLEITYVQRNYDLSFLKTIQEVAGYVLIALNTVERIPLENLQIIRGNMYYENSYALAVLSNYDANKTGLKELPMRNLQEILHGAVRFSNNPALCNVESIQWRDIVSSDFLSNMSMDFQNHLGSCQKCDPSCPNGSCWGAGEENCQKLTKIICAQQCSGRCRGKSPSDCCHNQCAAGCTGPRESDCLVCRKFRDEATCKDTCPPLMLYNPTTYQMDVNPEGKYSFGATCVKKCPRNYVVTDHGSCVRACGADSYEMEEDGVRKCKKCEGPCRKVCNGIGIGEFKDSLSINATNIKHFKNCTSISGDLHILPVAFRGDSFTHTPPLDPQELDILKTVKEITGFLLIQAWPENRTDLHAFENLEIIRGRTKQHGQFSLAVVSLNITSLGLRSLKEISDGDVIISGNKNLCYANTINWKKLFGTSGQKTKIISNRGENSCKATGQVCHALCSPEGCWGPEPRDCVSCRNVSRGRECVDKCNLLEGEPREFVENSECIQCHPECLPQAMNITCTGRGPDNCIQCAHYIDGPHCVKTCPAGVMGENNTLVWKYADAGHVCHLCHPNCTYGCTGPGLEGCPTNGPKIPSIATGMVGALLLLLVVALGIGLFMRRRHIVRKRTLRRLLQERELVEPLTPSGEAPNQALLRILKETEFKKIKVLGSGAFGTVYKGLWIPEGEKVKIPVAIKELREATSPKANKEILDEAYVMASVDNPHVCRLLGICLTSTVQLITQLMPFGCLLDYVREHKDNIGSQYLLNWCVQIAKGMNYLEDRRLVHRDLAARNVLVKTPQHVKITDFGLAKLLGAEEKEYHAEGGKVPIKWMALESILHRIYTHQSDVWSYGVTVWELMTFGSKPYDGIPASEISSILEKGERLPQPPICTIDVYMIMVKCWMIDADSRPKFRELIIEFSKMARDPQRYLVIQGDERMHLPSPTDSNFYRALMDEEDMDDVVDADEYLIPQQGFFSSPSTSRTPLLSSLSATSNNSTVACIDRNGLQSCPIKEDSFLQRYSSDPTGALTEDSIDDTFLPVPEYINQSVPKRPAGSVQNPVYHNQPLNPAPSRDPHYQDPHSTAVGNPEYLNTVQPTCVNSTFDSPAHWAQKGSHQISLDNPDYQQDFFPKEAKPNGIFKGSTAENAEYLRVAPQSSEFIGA
Chain of Adenosine receptor A1 (Homo sapiens) (P30542 whole entry): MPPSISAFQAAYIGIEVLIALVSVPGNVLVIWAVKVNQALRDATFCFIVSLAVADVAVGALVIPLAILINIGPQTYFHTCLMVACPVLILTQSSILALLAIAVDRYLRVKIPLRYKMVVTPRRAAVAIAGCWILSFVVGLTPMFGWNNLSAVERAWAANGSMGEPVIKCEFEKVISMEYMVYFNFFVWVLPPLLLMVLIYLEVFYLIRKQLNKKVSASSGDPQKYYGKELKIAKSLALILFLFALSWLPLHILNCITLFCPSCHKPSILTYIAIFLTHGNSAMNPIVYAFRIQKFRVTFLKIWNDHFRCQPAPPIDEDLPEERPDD
Chain of Histamine H3 receptor (Homo sapiens) (Q9Y5N1 whole entry): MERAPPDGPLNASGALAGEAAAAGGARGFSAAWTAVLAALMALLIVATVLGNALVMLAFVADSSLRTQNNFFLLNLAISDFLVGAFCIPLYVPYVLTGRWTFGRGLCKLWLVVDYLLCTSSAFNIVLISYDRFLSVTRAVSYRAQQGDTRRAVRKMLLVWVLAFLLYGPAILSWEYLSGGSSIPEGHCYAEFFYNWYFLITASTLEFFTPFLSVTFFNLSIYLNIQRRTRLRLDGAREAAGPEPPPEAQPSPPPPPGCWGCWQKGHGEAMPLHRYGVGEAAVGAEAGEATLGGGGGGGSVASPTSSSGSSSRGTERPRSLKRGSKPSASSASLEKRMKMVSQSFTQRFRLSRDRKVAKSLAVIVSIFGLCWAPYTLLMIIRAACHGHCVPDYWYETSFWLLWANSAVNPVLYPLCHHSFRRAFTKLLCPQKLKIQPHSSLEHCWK
Chain of Platelet-activating factor receptor (Homo sapiens) (P25105 whole entry): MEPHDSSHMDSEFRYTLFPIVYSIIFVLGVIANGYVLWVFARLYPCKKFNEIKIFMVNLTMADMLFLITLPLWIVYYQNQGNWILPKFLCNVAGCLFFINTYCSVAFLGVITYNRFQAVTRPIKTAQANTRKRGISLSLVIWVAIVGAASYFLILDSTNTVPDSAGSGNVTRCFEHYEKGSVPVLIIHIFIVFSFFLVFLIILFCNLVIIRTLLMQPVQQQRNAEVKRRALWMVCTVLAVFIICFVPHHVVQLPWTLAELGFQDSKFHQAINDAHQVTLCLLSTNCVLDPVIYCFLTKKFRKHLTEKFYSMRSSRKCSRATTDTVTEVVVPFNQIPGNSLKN
Chain of Gamma-aminobutyric acid type B receptor subunit 1 (Homo sapiens) (Q9UBS5 whole entry): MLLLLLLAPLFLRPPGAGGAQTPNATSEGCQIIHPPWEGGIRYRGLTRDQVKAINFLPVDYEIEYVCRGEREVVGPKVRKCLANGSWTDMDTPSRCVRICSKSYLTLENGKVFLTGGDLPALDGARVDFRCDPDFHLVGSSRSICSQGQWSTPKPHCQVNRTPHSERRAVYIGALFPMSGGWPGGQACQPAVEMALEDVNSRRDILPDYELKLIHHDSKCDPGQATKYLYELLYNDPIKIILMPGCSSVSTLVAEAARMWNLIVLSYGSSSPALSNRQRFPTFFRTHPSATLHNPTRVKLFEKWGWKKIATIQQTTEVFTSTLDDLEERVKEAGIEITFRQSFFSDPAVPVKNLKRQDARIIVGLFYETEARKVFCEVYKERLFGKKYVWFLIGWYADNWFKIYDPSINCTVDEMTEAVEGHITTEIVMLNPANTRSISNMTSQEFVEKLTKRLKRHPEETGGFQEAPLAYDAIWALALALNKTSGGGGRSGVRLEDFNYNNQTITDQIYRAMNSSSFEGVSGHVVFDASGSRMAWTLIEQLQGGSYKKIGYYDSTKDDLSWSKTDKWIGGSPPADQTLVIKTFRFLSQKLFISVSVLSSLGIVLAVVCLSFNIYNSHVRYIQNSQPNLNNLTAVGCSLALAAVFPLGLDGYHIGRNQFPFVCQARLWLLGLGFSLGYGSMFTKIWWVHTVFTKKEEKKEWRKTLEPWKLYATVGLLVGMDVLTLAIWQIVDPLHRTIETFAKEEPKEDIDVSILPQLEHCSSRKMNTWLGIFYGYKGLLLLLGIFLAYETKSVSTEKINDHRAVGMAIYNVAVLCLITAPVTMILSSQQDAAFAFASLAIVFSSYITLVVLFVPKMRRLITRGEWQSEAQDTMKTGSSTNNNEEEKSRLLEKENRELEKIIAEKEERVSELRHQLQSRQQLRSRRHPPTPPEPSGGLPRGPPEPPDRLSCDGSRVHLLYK

Compound: O=C(N1CCS(=O)(=O)CC1)N1C[C@H](c2ccc(OC(F)(F)F)cc2)C[C@H](c2nc(C3CC3)no2)C1 [BAY-386]
- inhibition (Rattus norvegicus [1]): 11%
- inhibition [2]: -9%
- inhibition [3]: -7%
- inhibition [4]: 10%
- inhibition [5]: 10%
- inhibition [6]: 9%
- inhibition [7]: 15%
- inhibition (Mus musculus): 5%
- inhibition [8]: 0%
- inhibition (Rattus norvegicus [9]): 11%
- inhibition [10]: 11%
- inhibition [11]: 8%
- IC50 [12]: 56 nM (active)
- IC50 (Platelet [13]): > 100000 nM (not active)
- IC50 (Platelet [14]): 140 nM
- inhibition [15]: -3%
- inhibition [16]: -2%
- inhibition [17]: -6%
- inhibition [18]: -3%
- inhibition [19]: -2%
- inhibition [20]: 12%
- inhibition [21]: 17%

Compound: Cc1noc([C@H]2C[C@@H](c3ccc(C(F)(F)F)cc3)CN(C(=O)N3CCS(=O)(=O)C3)C2)n1 [BAY-448]
- inhibition [22]: 12.8%
